# From ChEMBL document CHEMBL4406811, “Optimization and Mechanistic Characterization of Pyridopyrimidine Inhibitors of Bacterial Biotin Carboxylase” (J Med Chem, 2019)
# Active and inactive are the calls of the source. The rule behind the calls is not given here.
# Assays:
# Biotin carboxylase = Biotin carboxylase (Pseudomonas aeruginosa (strain ATCC 15692 / DSM 22644 / CIP 104116 / JCM14847 / LMG 12228 / 1C / PRS 101 / PAO1), UniProt P37798); assay: Inhibition of recombinant N-terminal His-tagged Pseudomonas aeruginosa PAO1 biotin carboxylase expressed in Escherichia coli Rosetta(DE3) pLysS cells using biotin as substrate by spectroscopic analysis
# Escherichia coli [1] = assay: Antibacterial activity against Escherichia coli DM4100 harboring deltatolC mutant measured after 18 to 20 hrs by broth microdilution method; assay type: functional
# Escherichia coli [2] = assay: Antibacterial activity against Escherichia coli DM4100 harboring deltatolC mutant measured after 18 to 20 hrs in presence of permeabilizing agent PMBN by broth microdilution method; assay type: functional
# Pseudomonas aeruginosa = assay: Antibacterial activity against Pseudomonas aeruginosa PAO1 PAM1262 harboring MexAB-OprM/MexCD-OprJ/MexEF-OprN deletion mutant measured after 18 to 20 hrs by broth microdilution method; assay type: functional
# Escherichia coli [3] = assay: Induction of cytological changes in Escherichia coli ATCC 25922 assessed as formation of short chains of three to eight cells at 150 ug/ml measured after 2 hrs by FM 4-64/DAPI staining based microscopic analysis; assay type: functional, organism-based
# Sequence of Biotin carboxylase (P37798 whole entry): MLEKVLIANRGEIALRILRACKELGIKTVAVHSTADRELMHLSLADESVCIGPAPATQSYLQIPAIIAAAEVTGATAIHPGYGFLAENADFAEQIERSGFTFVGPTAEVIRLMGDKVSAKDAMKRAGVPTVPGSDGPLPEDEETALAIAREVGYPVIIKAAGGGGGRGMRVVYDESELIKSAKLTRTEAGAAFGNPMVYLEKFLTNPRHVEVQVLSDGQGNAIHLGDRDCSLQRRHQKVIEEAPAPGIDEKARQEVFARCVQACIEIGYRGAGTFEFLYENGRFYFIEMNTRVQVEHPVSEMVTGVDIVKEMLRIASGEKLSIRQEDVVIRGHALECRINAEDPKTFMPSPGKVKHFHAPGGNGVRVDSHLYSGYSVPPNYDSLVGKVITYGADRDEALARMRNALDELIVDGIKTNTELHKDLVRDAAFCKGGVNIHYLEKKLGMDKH
SMILES,IC50 (Biotin carboxylase),MIC (Escherichia coli [1]),MIC (Escherichia coli [2]),MIC (Pseudomonas aeruginosa),Activity (Escherichia coli [3])
COc1ccc(-c2cccc(Cl)c2-c2cc3cnc(N)nc3nc2N)cn1,32 nM,0.06 µg/mL,0.03 µg/mL,,
CC(C)COc1cccc(Cl)c1-c1cc2cnc(N)nc2nc1N,93 nM,0.25 µg/mL,≤ 0.06 µg/mL,,
NCC1(F)CCN(c2nc3nc(N)ncc3cc2-c2c(Cl)cccc2Cl)C1 (centres undefined),440 nM,,1 µg/mL,,
NC(=O)C1CCN(c2nc3nc(N)ncc3cc2-c2c(Cl)cccc2Cl)C1 (centres undefined),170 nM,0.5 µg/mL,0.12 µg/mL,,
NCC1CCN(c2nc3nc(N)ncc3cc2-c2c(Cl)cccc2Cl)CC1,320 nM,1 µg/mL,0.5 µg/mL,64 µg/mL,
Nc1ncc2cc(-c3c(Cl)cccc3Cl)c(N)nc2n1,320 nM,0.5 µg/mL,0.25 µg/mL,16 µg/mL,
Nc1ncc2cc(-c3ccccc3-c3ccccc3)c(N)nc2n1,79 nM,0.5 µg/mL,0.25 µg/mL,,
NCC1CCN(c2nc3nc(N)ncc3cc2-c2c(Cl)cccc2Cl)C1 (centres undefined),64 nM,0.5 µg/mL,0.12 µg/mL,,Active
Cc1ncc(-c2cccc(Cl)c2-c2cc3cnc(N)nc3nc2N2C[C@@H]3[C@@H](N)[C@@H]3C2)s1,≤ 15 nM,0.008 µg/mL,0.004 µg/mL,1 µg/mL,
Nc1ncc2cc(-c3c(Cl)cccc3Cl)c(N3C[C@@H]4[C@@H](N)[C@@H]4C3)nc2n1,33 nM,0.12 µg/mL,0.06 µg/mL,,
Nc1ncc2cc(-c3c(Cl)cccc3-c3cccnc3)c(N)nc2n1,36 nM,0.12 µg/mL,0.06 µg/mL,4 µg/mL,
NCC1(O)CCN(c2nc3nc(N)ncc3cc2-c2c(Cl)cccc2Cl)C1 (centres undefined),83 nM,1 µg/mL,0.25 µg/mL,> 64 µg/mL,
Nc1ncc2cc(-c3c(Cl)cccc3Cl)c(N3CCC(CO)C3)nc2n1 (centres undefined),140 nM,0.25 µg/mL,0.12 µg/mL,,
Nc1ncc2cc(-c3c(Cl)cccc3-c3ccncc3)c(N3C[C@@H]4[C@@H](N)[C@@H]4C3)nc2n1,≤ 15 nM,0.03 µg/mL,0.015 µg/mL,2 µg/mL,
Nc1ncc2cc(-c3ccccc3-c3cccnc3)c(N)nc2n1,130 nM,2 µg/mL,0.5 µg/mL,16 µg/mL,
Nc1ncc2cc(-c3c(Cl)cccc3Cl)c(N3CCC(N)(CO)C3)nc2n1 (centres undefined),190 nM,1 µg/mL,0.25 µg/mL,,
COc1ncc(-c2cccc(Cl)c2-c2cc3cnc(N)nc3nc2N2C[C@@H]3[C@@H](N)[C@@H]3C2)cc1F,≤ 15 nM,0.015 µg/mL,0.008 µg/mL,2 µg/mL,
